Laboratory results taken from PubChem BioAssay (NCI).
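The compound was tested at five concentrations on cells cultured in 96-well plates, with a 48-hour exposure period. Abbreviation: GI50, concentration required for 50% inhibition of growth. TGI: concentration producing complete growth inhibition.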

Assays:
Assay in all cases: inhibition of tumour cell growth, NCI panel, 48 h
HCC-2998 colon = system: HCC-2998 colon
HCT-116 colon = system: HCT-116 colon
MALME-3M melanoma = system: MALME-3M melanoma
MDA-MB-231 breast = system: MDA-MB-231 breast
MDA-MB-435 = system: MDA-MB-435
MOLT-4 leukemia = system: MOLT-4 leukemia
NCI-H23 lung = system: NCI-H23 lung
NCI/ADR-RES ovarian = system: NCI/ADR-RES ovarian
OVCAR-3 ovarian = system: OVCAR-3 ovarian
OVCAR-4 ovarian = system: OVCAR-4 ovarian
OVCAR-8 ovarian = system: OVCAR-8 ovarian
RPMI-8226 leukemia = system: RPMI-8226 leukemia
RXF 393 renal = system: RXF 393 renal
SF-539 CNS = system: SF-539 CNS
SNB-19 CNS = system: SNB-19 CNS
TK-10 renal = system: TK-10 renal
U251 CNS = system: U251 CNS

SMILES	TGI (HCC-2998 colon) [µM]	TGI (HCT-116 colon) [µM]	TGI (MALME-3M melanoma) [µM]	TGI (MDA-MB-231 breast) [µM]	TGI (MDA-MB-435) [µM]	TGI (MOLT-4 leukemia) [µM]	TGI (NCI-H23 lung) [µM]	TGI (NCI/ADR-RES ovarian) [µM]	TGI (OVCAR-3 ovarian) [µM]	TGI (OVCAR-4 ovarian) [µM]	TGI (OVCAR-8 ovarian) [µM]	TGI (RPMI-8226 leukemia) [µM]	TGI (RXF 393 renal) [µM]	TGI (SF-539 CNS) [µM]	TGI (SNB-19 CNS) [µM]	TGI (TK-10 renal) [µM]	TGI (U251 CNS) [µM]	GI50 (HCT-116 colon) [µM]	GI50 (OVCAR-3 ovarian) [µM]	GI50 (SF-539 CNS) [µM]
NC1=CN(Cc2ccccc2)C2=N/C(=C\c3ccccc3)C(=O)N12	> 100	> 100	> 100	> 100	> 100	> 100	> 100	> 100	> 100	> 100	> 100	> 100	> 100	> 100	> 100	> 100	> 100	–	–	–
CCN(CC)CCn1c2cc3c(cc2c(=O)c2cccnc21)OCO3	> 10	> 10	> 10	> 10	> 10	> 10	> 10	> 10	> 10	> 10	> 10	> 10	> 10	> 10	> 10	> 10	> 10	–	–	–
Cc1cc(S(=O)(=O)NC2=NC(c3ccccc3)c3ccccc3N2)c(S)cc1Cl (stereo not drawn)	> 100	> 100	> 100	> 100	> 100	> 100	> 100	> 100	> 100	> 100	> 100	> 100	> 100	> 100	> 100	> 100	> 100	–	–	–
COc1ccc([C@H]2C=C(c3cc(F)c(Cl)cc3Cl)NC(=S)N2)cc1	70.5	84.9	> 100	> 100	56.4	> 100	> 100	> 100	> 100	> 100	> 100	76	79.9	> 100	> 100	> 100	95.8	–	–	–
CC[C@H](C)C1=C(O)[N@+]2([O-])Oc3ccc(-c4c(O)c(O)c(-c5ccc(OC(C)=O)cc5)c(OC(C)=O)c4OC(C)=O)cc3O[C@]2([C@@H](C)CC)C(=O)N1O	24.5	17.8	> 50	> 50	> 50	35	> 50	> 50	> 50	31.5	> 50	42	> 50	> 50	> 50	> 50	> 50	–	–	–
CN1CCCC1=NC#N	> 100	> 100	> 100	> 100	> 100	> 100	> 100	> 100	> 100	> 100	> 100	> 100	> 100	> 100	> 100	> 100	> 100	–	–	–
OCc1ccc2c(c1)CC1(C2)Cc2cc3c(cc2C1)CCC3	> 100	> 100	> 100	> 100	0.615	> 100	> 100	> 100	> 100	> 100	> 100	> 100	28.5	> 100	> 100	> 79.6	> 100	–	–	–
CC#Cc1cc2c(cc1O)CC[C@@H]1[C@@H]2CC[C@]2(C)[C@@H](O)CC[C@@H]12	19.2	17.3	18.3	46.2	0.814	17.2	10.6	10.3	3.26	62	19.9	> 66.1	13.8	6.04	29.1	> 91.3	7.81	0.48	0.337	0.939
NNc1ccccc1Cl	> 100	> 100	> 100	> 100	> 100	> 100	> 100	> 100	> 100	> 100	> 100	> 100	> 100	> 100	> 100	> 100	> 100	–	–	–
COC(=O)[C@@H]1C2OC(C)(C)OC2CN1C(=O)OCc1ccccc1 (stereo partly drawn)	> 100	> 100	> 100	> 100	> 100	> 100	> 100	> 100	> 100	> 100	> 100	> 100	> 100	> 100	> 100	> 100	> 100	–	–	–
CCO/C=N/C1=C(C#N)C(c2ccc(Cl)cc2)c2c(-c3ccccc3)nn(-c3ccccc3)c2O1 (stereo not drawn)	> 38.9	> 47.9	30	> 67	35.8	> 100	24.5	> 85.4	> 45.2	> 64.8	> 80.8	> 100	28.6	> 26.2	24.7	14.2	16.8	–	–	–
CN(C)/C=C(\C(=O)c1ccccc1)n1nc(-c2ccccc2)cc1-c1ccccc1	> 10	> 10	> 10	> 10	> 10	> 10	> 10	> 10	> 10	> 10	> 10	> 10	> 10	> 10	> 10	> 10	> 10	–	–	–
CN(C)c1nc(=NCc2cccs2)ss1	> 10	> 10	> 10	> 10	> 10	> 6.29	> 10	> 10	> 10	> 10	> 10	> 10	> 10	> 10	> 10	> 10	> 10	–	–	–
COc1ccc2c(c1)CC[C@@H]1[C@@H]2CC[C@]2(C)C(=O)/C(=C/c3ccncc3)C[C@@H]12	75.4	> 100	77.3	> 100	92.4	> 100	> 100	> 100	44.2	> 100	> 100	> 100	46.7	55.1	> 100	> 100	> 100	–	–	–
Cc1ccc(C(CC(=O)C(C)(C)CN2CCCCC2)SCCS(=O)(=O)O)cc1 (stereo not drawn)	83.3	59.2	73.2	> 100	57.7	48.7	86.5	84.9	49.5	84.3	65.4	48.1	57.1	49.1	> 100	86	81.8	–	–	–
C[C@]12CC[C@H](O)C=C1CC[C@@H]1[C@@H]2CC[C@]2(C)C(=N/O)/C(=C/c3ccncc3)C[C@@H]12	12.5	18.7	48.5	23.9	42.8	> 100	63.7	96.8	19.1	76	76	19.9	26.3	27.3	32	38.3	19.6	–	–	–
COc1cc(Br)cc2nc(-c3cccs3)oc12	> 100	> 100	> 100	> 100	> 100	> 100	> 100	> 100	> 100	> 100	> 100	> 100	> 100	> 100	> 100	> 77.6	> 100	–	–	–
CC1(c2nc3ccccc3[nH]2)CCC(C(N)=O)C(C)(C)O1 (stereo not drawn)	> 100	> 100	> 100	> 100	> 100	> 100	> 100	> 100	> 100	> 100	> 100	> 100	> 100	> 100	> 100	> 100	> 100	–	–	–
CC(C)C1SCc2nc3ccccc3n21 (stereo not drawn)	> 100	> 100	> 100	78.2	89.9	81.6	> 100	> 100	> 100	> 100	> 100	> 100	> 100	> 100	> 100	> 100	> 100	–	–	–
S=C(N/N=C(/c1ccccc1)c1ccccn1)Nc1ccc(Cl)cc1	10.9	4.47	10.6	8.27	10.2	> 13.8	22.6	14.3	11.6	14.2	3.19	> 25.9	7.87	8.55	20.7	8.3	12.4	–	–	–
